{"source": "paper PMC12320245", "about": "(International Journal of Biological Sciences, 2025)", "test_system": "astrocytes", "assay": "Lysosomal pH detection (DND-189 fluorescence)", "format": "cell-based", "details": "10 μM AMX with 100 nM BafA1"}
{"smiles": "CC(C)c1ccc2oc3nc(N)c(C(=O)O)cc3c(=O)c2c1", "note": "[AMX, amlexanox]", "values": [{"measurement": "lysosomal pH (DND-189 fluorescence), reversal of BafA1 effect", "result": "effectively reversed BafA1-induced alkalization"}]}
